Measured values published in patent US20100183597A1, “DRAK2 EXPRESSION IS ASSOCIATED WITH DIABETES” (priority 2007, published 2010).

Columns and labels:
Drak2 = Drak2 protein levels in siRNA-transfected NIT-1 insulinoma cells by flow cytometry; type: cell-based, mouse; conditions: NIT-1 cells; for Drak2 protein upregulation stimulated by FFA: siRNA transfected, cultured 24 h with FFA, intracellular Drak2 by flow cytometry (FIG. 2A); for Drak2 protein upregulation stimulated by cytokines: 24 h (FIG. 10B)
Source text: (§1) Drak2 Tg and WT islets were digested with 0.05% trypsin-EDTA to obtain single cell suspensions. The cells were fixed with 4% paraformaldehyde and permeabilized with 0.2% Triton X-100. They were stained with rabbit anti-Drak2 Ab (Abgent, San Diego, Calif.; 1:50 dilution) and anti-insulin mAb (Sigma, St. Louis, Mo.; 1:500 dilution). Subsequently, they were stained with FITC-conjugated sheep anti-rabbit antibody (Chemicon, Temecula, Calif.), and PE-conjugated goat anti-mouse antibody (Jackson Immunoresearch, West Grove, Pa.), and analyzed by 2-color flow cytometry. Dispersed islet cells or small interfering RNA (siRNA)-transfected NIT-1 cells were also analyzed for apoptosis by flow cytometry using FITC-annexin V staining (Murakami et al., 2004).
(§2) NIT-1 cells, derived from mouse insulinoma, were transfected with siRNA using Lipofectamine 2000 (Invitrogen, Burlington, Ontario) according to the manufacturer's instructions. For Drak2 siRNA, the oligonucleotide RNA sequences were CAUCCCUGAAGAUGGCAGCtt and GCUGCCAUCUUCAGGGAUGtt. The control was the scrambled sequence of said siRNA with following sequences: 5′CCCUAAGUGUAGGACGCACtt and 3′GUGCGUCCUACACUUAGGGtt. Single stranded RNA pairs were annealed by being incubated for 1 min at 900 C, and then cooled down to room temperature over 45 min. The final concentration of double-stranded siRNA was 20 μM for transfection.
(§3) Dispersed islet cells were fixed with 4% paraformaldehyde and permeabilized with 0.2% Triton X-100. For Drak2 and insulin detection, the cells were stained as described for confocal microscopy, and analyzed by 2-color flow cytometry. Dispersed islet cells or small interfering RNA (siRNA)-transfected NIT-1 cells were also analyzed for apoptosis by flow cytometry with FITC-annexin V staining (Murakami et al., 2004)).
(§4) NIT-1 cells, derived from mouse insulinoma, were transfected with siRNA using Lipofectamine 2000 (Invitrogen, Burlington, Ontario) according to the manufacturer's instructions. Two siRNAs specific for Drak2 were employed. For Drak2 siRNA #1162, the oligonucleotide RNA sequences were CAUCCCUGAAGAUGGCAGCtt and GCUGCCAUCUUCAGGGAUGtt. For Drak2 siRNA #592, the oligonucleotide RNA sequences were UAACAUUGUUCACCUUGAUtt and AUCAAGGUGAACAAUGUUAtt. The control siRNA was the scrambled sequence of siRNA #1162 with the following sequences: 5′CCCUAAGUGUAGGACGCACtt and 3′GUGCGUCCUACACUUAGGGtt. Single-stranded RNA pairs were annealed by incubation for 1 min at 900 C, and then cooled down to room temperature over 45 min. The final concentration of double-stranded siRNA was 10 nM for transfection.

NIT-1 cells = experiment: Apoptosis of NIT-1 cells by annexin V staining and flow cytometry; type: cell-based, mouse; conditions: for FFA-induced apoptosis (annexin V): cultured 24 h with FFA (FIG. 2B)
Source text: as §1, §2, §3, §4
NIT-1 cells were treated with IFN-g+IL-1b for 72 hours, with or without […] rapamycin. Drak2 siRNA were transfected to some cells at 24 hour, the apoptosis of cells were measured with Annexin-v staining.

p70S6 kinase = p70S6 kinase phosphorylation in NIT-1 cell lysates by immunoblotting; type: cell-based, mouse; conditions: NIT-1 cells, IFN-γ plus IL-1β or TNF-α plus IL-1β, siRNA transfected after 24 h, immunoblot after additional 24 h (FIG. 15B, 15C)
Procedure: NIT-1 cells were transiently transfected with pCEP4-HA-Drak2 or empty vector pCEP4-HA. After 48 h, the cells were lysed and resolved in 10% SDS-PAGE (60 μg/lane) followed by immunoblotting. For HA-Drak2 expression, membrane was blotted with mouse anti-HA mAb (Santa Cruz, Santa Cruz, Calif.; 1:1000 dilution) followed by horse radish peroxidase (HRP)-conjugated sheep anti-mouse IgG (GE Health; 1:2000 dilution). To assess p70S6 kinase phosphorylation, the membrane was blotted with mouse anti-phospho-p70S6 kinase (Thr389) Ab (Cell Signaling, Danvers, Mass.; 1:1000 dilution) followed by HRP-conjugated sheep anti-mouse IgG (GE Health; 1:2000 dilution). The membrane was also blotted with rabbit anti-p70S6 kinase Ab (Cell Signaling, Danvers, Mass.; 1:1000 dilution) followed by HRP-conjugated donkey anti-rabbit IgG to show similar total p70S6 kinase protein. In some experiments, NIT-1 cells were stimulated with IFN-γ (1000 U/ml) plus IL-1β (0.5 ng/ml), or TNF-α (200 ng/ml) plus IL-1β (0.5 ng/ml). Twenty four hours later, they were transfected with two different Drak2 siRNAs (#592 and #1162), or with a control siRNA. After additional 24 hour, phospho-p70S6 kinase and total p70S6 kinase in the cell lysates were detected by immunoblotting as described above.

human islets = experiment: Inflammatory cytokine-induced apoptosis of human islets, annexin V flow cytometry; type: cell-based; conditions: TNF-a, IFN-g and IL1-b, 72 h (FIG. 19)
Procedure: FIG. 19—Drak2 siRNA (designed based on the mouse Drak2 sequence) effectively protects human islets from inflammatory cytokine-induced apoptosis. Human islets were treated with cytokines (IFN-γ (1000 U/ml), IL-1β (0.5 ng/ml), TNF-α (200 ng/ml), 24 h later, they were transfected with a combination of 2 Drak2 siRNA (#592 and #1162, 10 nM each). At 72 h, the islets were harvested, dispersed and tested for annexin V expression by flow cytometry. The percentage of apoptotic cells (annexin V positive) is shown.
as §3

[1] = IFN-γ plus IL-1β or TNF-α plus IL-1β

Row | Substance | Drak2 protein upregulation stimulated by FFA (Drak2) | FFA-induced apoptosis (annexin V) (NIT-1 cells; siRNA transfected) | cytokine-induced p70S6 kinase phosphorylation (phospho versus total p70S6 kinase) (p70S6 kinase) | Drak2 protein upregulation stimulated by cytokines (Drak2; [1]) | apoptosis induced by IFN-γ+IL-1β (annexin V) (NIT-1 cells; 72 h, rapamycin 250 nM, Drak2 siRNA transfected at 24 h, alone or combined (FIG. 18)) | cytokine-induced apoptosis (annexin V) (NIT-1 cells; siRNA transfected, IFN-γ plus IL-1β or TNF-α plus IL-1β, 24 h (FIG. 10C)) | cytokine-induced Drak2 protein expression (Drak2; IFN-γ plus IL-1β or TNF-α plus IL-1β, siRNA transfected after 24 h, assayed at 48 h (FIG. 15A)) | effect on cytokine-induced apoptosis of human islets (human islets)
1 | #592: Drak2 siRNA; oligonucleotide RNA sequences UAACAUUGUUCACCUUGAUtt and AUCAAGGUGAACAAUGUUAtt (SEQ ID Nos:7 and 8) (chain 1 UAACAUUGUUCACCUUGAUTT; chain 2 AUCAAGGUGAACAAUGUUATT; chemistry not fully specified) | inhibited Drak2 protein upregulation | prevented FFA-induced apoptosis | inhibited p70S6 kinase phosphorylation |  |  |  |  | 
2 | #1162: Drak2 siRNA; oligonucleotide RNA sequences CAUCCCUGAAGAUGGCAGCtt and GCUGCCAUCUUCAGGGAUGtt (SEQ ID Nos: 5 and 6) | inhibited Drak2 protein upregulation | prevented FFA-induced apoptosis | inhibited p70S6 kinase phosphorylation | prevented Drak2 protein upregulation |  |  |  | 
3 | Drak2 siRNA: Drak2 siRNA without number; Example 4 sequences CAUCCCUGAAGAUGGCAGCtt and GCUGCCAUCUUCAGGGAUGtt, the same as #1162 (GCUGCCAUCUUCAGGGAUGTT; RNA strands with 3' tt overhangs, overhang chemistry not given here, further chemistry not given here) |  |  |  |  | reduce apoptosis | dampened |  | 
4 | control siRNA: scrambled sequence of siRNA #1162: 5′CCCUAAGUGUAGGACGCACtt and 3′GUGCGUCCUACACUUAGGGtt (SEQ ID Nos: 9 and 10) (chain 1 CCCUAAGUGUAGGACGCACTT; chain 2 GUGCGUCCUACACUUAGGGTT; RNA strands with 3' tt overhangs, overhang chemistry not given here, further chemistry not given here) [reference compound] | no effect |  | no effect | no effect |  |  | no effect | no effect
